Patent publication US7488823B2, “Cyanoguanidines and cyanoamidines as ErbB2 and EGFR inhibitors” (Array Biopharma, Inc., priority 2003, dated 2009)

The molecules below were run against ErbB2 (Homo sapiens, UniProt P04626) (assay: ErbB kinase ELISA on poly-Glu-Tyr 4:1 coated microtiter plates). Details: PGT substrate, ATP, baculovirus ErbB2, 30 minutes at room temperature, optical density at 450 nm.
Sequence of ErbB2 (P04626 23-1255): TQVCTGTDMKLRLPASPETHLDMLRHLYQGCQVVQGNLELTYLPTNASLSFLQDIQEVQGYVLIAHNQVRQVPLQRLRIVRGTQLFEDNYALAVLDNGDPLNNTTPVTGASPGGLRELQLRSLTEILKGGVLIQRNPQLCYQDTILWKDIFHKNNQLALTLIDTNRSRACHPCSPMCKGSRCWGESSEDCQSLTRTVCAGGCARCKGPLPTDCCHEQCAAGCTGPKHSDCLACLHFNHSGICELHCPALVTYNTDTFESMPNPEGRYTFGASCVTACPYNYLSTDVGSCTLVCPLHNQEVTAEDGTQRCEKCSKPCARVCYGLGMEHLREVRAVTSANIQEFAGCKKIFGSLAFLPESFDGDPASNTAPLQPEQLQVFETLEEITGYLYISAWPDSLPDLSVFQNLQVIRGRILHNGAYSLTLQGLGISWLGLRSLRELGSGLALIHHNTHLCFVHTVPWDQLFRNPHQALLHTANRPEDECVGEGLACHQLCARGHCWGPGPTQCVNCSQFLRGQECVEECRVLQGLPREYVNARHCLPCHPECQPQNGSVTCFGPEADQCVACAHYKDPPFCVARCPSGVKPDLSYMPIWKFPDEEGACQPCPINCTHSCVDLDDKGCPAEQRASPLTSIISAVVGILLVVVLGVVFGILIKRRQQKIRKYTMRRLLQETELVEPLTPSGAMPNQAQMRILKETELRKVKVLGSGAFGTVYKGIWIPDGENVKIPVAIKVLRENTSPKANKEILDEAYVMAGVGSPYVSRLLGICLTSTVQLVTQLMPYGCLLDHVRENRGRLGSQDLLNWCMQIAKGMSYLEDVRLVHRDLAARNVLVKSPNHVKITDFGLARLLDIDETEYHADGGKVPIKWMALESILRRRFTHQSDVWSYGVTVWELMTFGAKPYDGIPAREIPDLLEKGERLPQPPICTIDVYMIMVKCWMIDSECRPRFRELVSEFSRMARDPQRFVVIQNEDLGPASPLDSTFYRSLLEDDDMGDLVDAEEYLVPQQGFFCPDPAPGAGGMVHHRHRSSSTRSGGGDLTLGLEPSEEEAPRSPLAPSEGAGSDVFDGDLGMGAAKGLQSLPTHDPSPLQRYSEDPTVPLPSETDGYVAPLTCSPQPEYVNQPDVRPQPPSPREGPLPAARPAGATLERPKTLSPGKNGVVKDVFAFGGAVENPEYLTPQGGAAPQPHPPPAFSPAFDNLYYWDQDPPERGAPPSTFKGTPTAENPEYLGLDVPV
Assay type: biochemical
Protocol: The extent to which the compounds of the present invention modulate ErbB kinase activity can be determined using the following enzyme-linked immunosorbent assay (ELISA), which employs a microtiter plate coated with a protein tyrosine kinase specific polymer substrate. The phosphorylation reaction is performed on poly-Glu-Tyr 4:1 (PGT) coated microtiter plates in the presence on Mg^++, ATP and EGFR. The phosphorylated polymer substrate is detected with a phosphotyrosine specific monoclonal antibody conjugated to horseradish peroxidase (HRP). Chromogenic substrate (TMB) color is quantitiated by spectrophotometry.
The assay is performed in a 96-well microtiter plate (Immunlon 4, available from Dynex). To prepare the plate, 100 μL of 0.25 mg/mL Poly (Glu,Tyr) 4:1 Sodium Salt (available from Sigma, Catalog Number P0275) in phosphate buffered saline (PBS) is added to each well and the plates are sealed. Following incubation overnight at ambient temperature, this coating solution is removed and the plates are washed three times with 300 μL of 0.1% Tween 20 (available from Sigma, Catalog Number P2287) in PBS. If not using immediately, the coated microtiter plates may be stored at 2-8° C. with 150 μL of 0.1% Tween 20 in PBS in each well.
The compound to be tested is dissolved in DMSO at an initial concentration of 1.0 mM. This initial concentration is diluted 1:25 in DMSO, and the resulting solution is further serially diluted 1:5 eight times in DMSO. To 10 μL of the initial concentration and each dilution are added 240 μL Reaction Buffer (50 mM HEPES, 125 mM NaCl, 24 mM MgCl2, 0.1 mM Na3VO4 (boiled at pH 10 until colorless—approximately 10 minutes—and cooled prior to use), pH 7.3, filtered through a 0.2 micron filter). 25 μL of each compound solution (4% DMSO in Reaction Buffer for control) is placed in a separate microtiter plate well, along with 50 μL Reaction Buffer +ATP (15 μL 10 of mM ATP added to 5 mL Reaction Buffer) and 25 μL Reaction Buffer into which a catalytic amount of baculovirus ErbB2 has been added. The plate is then covered and incubated for 30 minutes at room temperature, after which time all liquid is aspirated from each well. The plate is washed three times with 300 μL of 0.1% Tween in PBS. Residual wash solution is removed by inverting the plate and blotting on a paper towel.
To each well is then added 100 μL of PBS containing 3% bovine serum albumin (protease-free, IgG-free, Jackson Catalog Number 001-000-162), 0.05% Tween 20 and 0.2 μg/mL anti-phosphotyrosine horseradisn peroxidase (available from Zymed, Laboratories, Inc., Catalog Number 03-7720). The plate is covered and incubated for 30 minutes at room temperature, after which time all liquid is aspirated from each well. The plate is washed three times with 300 μL of 0.1% Tween in PBS. Residual wash solution is removed by inverting the plate and blotting on a paper towel. To each well is then added 100 μL of TMB peroxidase substrate system (KPL Catalog Number 50-76-00), and the plate is allowed to incubate for 25 minutes at room temperature, at which time the reaction is stopped by the addition of 100 μL of 1M phosphoric acid to each well. The plate is tapped gently to ensure mixing.
Within about thirty minutes after the reaction is stopped, the optical density at 450 nm of each well is determined using a microtiter plate reader. A dose response curve is generated by plotting optical density versus compound concentration. IC50 is calculated from this curve using methods known in the art.
Molecule `CN(C)/C(=N\C#N)NCC#Cc1ccc2ncnc(Nc3ccc(OCc4cccc(F)c4)c(Cl)c3)c2c1` [Example 1, N-(3-{4-[3-Chloro-4-(3-fluoro-benzyloxy)-phenylamino]-quinazolin-6-yl}-prop-2-ynyl)-N′-cyano-N″,N″-dimethylguanidine] has an IC50 of 85 nM.
For `N#C/N=C(/NCC#Cc1ccc2ncnc(Nc3ccc(OCc4cccc(F)c4)c(Cl)c3)c2c1)NCCO` [Example 2, N-(3-{4-[3-Chloro-4-(3-fluoro-benzyloxy)-phenylamino]-quinazolin-6-yl}-prop-2-ynyl)-N′-cyano-N″-3-(2-hydroxy-ethyl)guanidine], the IC50 was 410 nM.
Molecule `Cc1ccc(Oc2ccc(Nc3ncnc4ccc(C#CCN/C(N)=N/C#N)cc34)cc2C)cn1` [Example 3, N-cyano-N′-(3-{4-[3-Methyl-4-(6-methyl-pyridin-3-yloxy)-phenylamino]-quinazolin-6-yl}-prop-2-ynyl)guanidine] has an IC50 of 8 nM.
`N#C/N=C(\NCc1ccc(-c2ccc3ncnc(Nc4ccc(OCc5cccc(F)c5)c(Cl)c4)c3c2)o1)N1CCOCC1` [Example 4, N-(5-{4-[3-Chloro-4-(3-fluoro-benzyloxy)-phenylamino]-quinazolin-6-yl}-furan-2-ylmethyl)-N′-cyano-morpholine-4-carboxamidine] gave an IC50 of 13 nM.
`Cc1ccc(Oc2ccc(Nc3ncnc4ccc(-c5csc(CN/C(N)=N\C#N)n5)cc34)cc2C)cn1` [Example 5, N-cyano-N′-(4-{4-[3-Methyl-4-(6-methyl-pyridin-3-yloxy)-phenylamino]-quinazolin-6-yl}-thiazol-2-ylmethyl)guanidine] showed an IC50 of 31 nM.
In the case of `COc1cc2ncnc(Nc3ccc(OCc4ccccn4)c(Cl)c3)c2cc1OCCCN/C(=N\C#N)N(C)CCN(C)C` [Example 6, N-(3-{4-[3-Chloro-4-(pyridin-2-ylmethoxy)-phenylamino]-7-methoxy-quinazolin-6-yloxy}-propyl)-N′-cyano-N″-(2-dimethylamino-ethyl)-N″-methylguanidine], the IC50 is reported as 14 nM.
With `COc1cc2ncnc(Nc3ccc(OCc4ccccn4)c(Cl)c3)c2cc1OCCCN/C(=N\C#N)N(C)C` [Example 7, N-(3-{4-[3-Chloro-4-(pyridin-2-ylmethoxy)-phenylamino]-7-methoxy-quinazolin-6-yloxy}-propyl)-N′-cyano-N″,N″-dimethylguanidine] the IC50 was 33 nM.
For `CN/C(=N/C#N)NCCCOc1cc2c(Nc3ccc(OCc4cccc(F)c4)c(Cl)c3)ncnc2cc1OC` [Example 8, N-(3-{4-[3-Chloro-4-(3-fluoro-benzyloxy)-phenylamino]-7-methoxy-quinazolin-6-yloxy}-propyl) -N′-cyano-N″-methylguanidine], the IC50 was 40 nM.
In the case of `N#C/N=C(\NCC#Cc1ccc2ncnc(Nc3ccc4c(cnn4Cc4cccc(F)c4)c3)c2c1)N1CCOCC1` [Example 9, N-cyano-N′-(3-{4-[1-(3-Fluoro-benzyl)-1 H-indazol-5-ylamino]-quinazolin-6-yl}-prop-2-ynyl)-morpholine-4-carboxamidine], the IC50 is reported as 12 nM.
`COCCN(C)/C(=N/C#N)NC/C=C/c1ccc2ncnc(Nc3ccc4c(cnn4Cc4cccc(F)c4)c3)c2c1` [Example 10, N-cyano-N′-(3-{4-[1-(3-Fluoro-benzyl)-1H-indazol-5-ylamino]-quinazolin-6-yl}-allyl)-N″-(2-methoxy-ethyl)-N″-methylguanidine] was tested, and the IC50 was 17 nM.
